# In patent US8338465B2, “Cyclic carboxylic acid rhodanine derivatives for the treatment and prevention of tuberculosis” (priority 2006, dated 2012):
# Biological target: T1, dihydrolipoamide acyltransferase (DlaT) (Mycobacterium tuberculosis, UniProt P9WIS7)
# T1 sequence (P9WIS7 1-553): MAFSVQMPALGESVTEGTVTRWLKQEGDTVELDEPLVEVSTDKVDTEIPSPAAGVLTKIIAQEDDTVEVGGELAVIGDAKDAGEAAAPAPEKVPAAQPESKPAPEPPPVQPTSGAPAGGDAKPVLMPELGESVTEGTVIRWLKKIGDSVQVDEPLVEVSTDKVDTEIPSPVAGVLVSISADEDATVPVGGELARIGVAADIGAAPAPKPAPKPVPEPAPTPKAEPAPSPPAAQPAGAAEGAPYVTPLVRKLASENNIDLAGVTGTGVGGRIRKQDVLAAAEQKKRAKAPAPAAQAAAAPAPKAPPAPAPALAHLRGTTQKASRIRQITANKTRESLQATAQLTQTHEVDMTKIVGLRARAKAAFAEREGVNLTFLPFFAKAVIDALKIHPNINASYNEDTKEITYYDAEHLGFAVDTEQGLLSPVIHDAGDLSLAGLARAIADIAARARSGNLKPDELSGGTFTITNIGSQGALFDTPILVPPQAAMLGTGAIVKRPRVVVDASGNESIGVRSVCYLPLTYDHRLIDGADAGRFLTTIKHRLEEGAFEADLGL
# Test: DlaT inhibition (Dlat IC50); DTNB peroxidase assay with Lpd, DlaT and AhpD
# Assay type: biochemical
# Conditions: Dlat IC50 category
row,SMILES,IC50
1,O=C(O)C(c1ccccc1)N1C(=O)C(=Cc2ccc(-c3ccc(Cl)cc3Cl)o2)SC1=S (stereo not shown) [Compound B44],< 10 µM
2,O=C(O)C(Cc1ccccc1)N1C(=O)C(=Cc2ccc(-c3ccc(Cl)cc3Cl)o2)SC1=S (stereo not shown) [Compound B45],< 10 µM
3,O=C(O)C(c1ccccc1)N1C(=O)C(=Cc2ccc(-c3cc(Cl)ccc3Cl)o2)SC1=S (stereo not shown) [Compound B46],< 10 µM
4,O=C(O)C(Cc1ccccc1)N1C(=O)C(=Cc2ccc(-c3cc(Cl)ccc3Cl)o2)SC1=S (stereo not shown) [Compound B47],< 10 µM
5,O=C(O)C(c1ccccc1)N1C(=O)C(=Cc2ccc(-c3c(Cl)cccc3Cl)o2)SC1=S (stereo not shown) [Compound B48],< 10 µM
6,O=C(O)C(Cc1ccccc1)N1C(=O)C(=Cc2ccc(-c3c(Cl)cccc3Cl)o2)SC1=S (stereo not shown) [Compound B49],< 10 µM
7,O=C(O)C(c1ccccc1)N1C(=O)C(=Cc2ccc(-c3cccc(C(F)(F)F)c3)o2)SC1=S (stereo not shown) [Compound B50],< 10 µM
8,O=C(O)C(Cc1ccc(O)cc1)N1C(=O)C(=Cc2ccc(-c3ccccc3Cl)o2)SC1=S (stereo not shown) [Compound B51],< 10 µM
9,O=C(O)C(Cc1ccc(O)cc1)N1C(=O)C(=Cc2ccc(-c3cccc(C(F)(F)F)c3)o2)SC1=S (stereo not shown) [Compound B52],< 10 µM
10,O=C(O)C(Cc1ccc(O)cc1)N1C(=O)C(=Cc2ccc(-c3ccc(Cl)cc3)o2)SC1=S (stereo not shown) [Compound B53],< 10 µM
11,O=C(O)C(Cc1ccc(O)c(O)c1)N1C(=O)C(=Cc2ccc(-c3ccccc3Cl)o2)SC1=S (stereo not shown) [Compound B54],11 to 40 µM
12,O=C(O)C(Cc1ccc(O)c(O)c1)N1C(=O)C(=Cc2ccc(-c3cccc(C(F)(F)F)c3)o2)SC1=S (stereo not shown) [Compound B55],< 10 µM
13,O=C(O)C(Cc1ccc(O)c(O)c1)N1C(=O)C(=Cc2ccc(-c3ccc(Cl)cc3)o2)SC1=S (stereo not shown) [Compound B56],11 to 40 µM
14,O=C(O)C(Cc1ccccc1)N1C(=O)C(=Cc2ccc(-c3ccc(Cc4ccccc4)cc3)o2)SC1=S (stereo not shown) [Compound B57],< 10 µM
15,O=C(O)C(Cc1ccc(O)cc1)N1C(=O)C(=Cc2ccc(-c3ccc(Cc4ccccc4)cc3)o2)SC1=S (stereo not shown) [Compound B58],< 10 µM
16,O=C(O)C(Cc1ccc(O)c(O)c1)N1C(=O)C(=Cc2ccc(-c3ccc(Cc4ccccc4)cc3)o2)SC1=S (stereo not shown) [Compound B59],< 10 µM
17,O=C(O)CN1C(=O)C(=Cc2ccc(-c3ccc(Cl)cc3)o2)SC1=S [Compound B60],11 to 40 µM
18,O=C(O)CN1C(=O)C(=Cc2ccc(-c3cc(C(F)(F)F)ccc3Cl)o2)SC1=S [Compound B61],< 10 µM
19,O=C(O)C(Cc1ccc(O)cc1)N1C(=O)C(=Cc2ccc(-c3cc(Cl)ccc3Cl)o2)SC1=S (stereo not shown) [Compound B62],< 10 µM
20,O=C(O)C(Cc1ccc(O)cc1)N1C(=O)C(=Cc2ccc(-c3cc(C(F)(F)F)ccc3Cl)o2)SC1=S (stereo not shown) [Compound B63],< 10 µM
21,O=C(O)C(Cc1ccc(O)c(O)c1)N1C(=O)C(=Cc2ccc(-c3cc(Cl)ccc3Cl)o2)SC1=S (stereo not shown) [Compound B64],< 10 µM
22,O=C(O)C(Cc1ccc(O)c(O)c1)N1C(=O)C(=Cc2ccc(-c3cc(C(F)(F)F)ccc3Cl)o2)SC1=S (stereo not shown) [Compound B65],< 10 µM
23,CC(C)c1ccc(-c2ccc(C=C3SC(=S)N(C(C(=O)O)c4ccccc4)C3=O)o2)cc1 (stereo not shown) [Compound B66],< 10 µM
24,CC(C)c1ccc(-c2ccc(C=C3SC(=S)N(C(Cc4ccccc4)C(=O)O)C3=O)o2)cc1 (stereo not shown) [Compound B67],< 10 µM

row,SMILES,IC50
1,CC(C)c1ccc(-c2ccc(C=C3SC(=S)N(C(Cc4ccc(O)c(O)c4)C(=O)O)C3=O)o2)cc1 (stereo not shown) [Compound B68],< 10 µM
2,O=C(O)CN1C(=O)C(=Cc2ccc(-c3ccc(C(=O)c4ccccc4)cc3)o2)SC1=S [Compound B69],11 to 40 µM
3,CC(C)c1ccc(-c2ccc(C=C3SC(=S)N(CC(=O)O)C3=O)o2)cc1 [Compound B70],11 to 40 µM
4,O=C(O)CN1C(=O)C(=Cc2ccc(-c3ccc(CSc4ccccc4)cc3)o2)SC1=S [Compound B71],11 to 40 µM
5,CC(C)c1cccc(-c2ccc(C=C3SC(=S)N(CC(=O)O)C3=O)o2)c1 [Compound B72],< 10 µM
6,O=C(O)CN1C(=O)C(=Cc2ccc(-c3ccc(C4CCCCC4)cc3)o2)SC1=S [Compound B73],< 10 µM
7,CC(C)(C)c1ccc(-c2ccc(C=C3SC(=S)N(CC(=O)O)C3=O)o2)cc1 [Compound B74],< 10 µM
8,CC(C)c1cccc(-c2ccc(C=C3SC(=S)N(C(Cc4ccccc4)C(=O)O)C3=O)o2)c1 (stereo not shown) [Compound B75],< 10 µM
9,O=C(O)C(Cc1ccccc1)N1C(=O)C(=Cc2ccc(-c3ccc(CSc4ccccc4)cc3)o2)SC1=S (stereo not shown) [Compound B76],< 10 µM
10,CC(C)Cc1ccc(-c2ccc(C=C3SC(=S)N(CC(=O)O)C3=O)o2)cc1 [Compound B77],< 10 µM
11,CC(C)Cc1ccc(-c2ccc(C=C3SC(=S)N(C(C(=O)O)c4ccccc4)C3=O)o2)cc1 (stereo not shown) [Compound B78],< 10 µM
12,O=C(O)CN1C(=O)C(=Cc2ccc(-c3ccc(Cc4ccc(Cl)cc4)cc3)o2)SC1=S [Compound B79],< 10 µM
13,O=C(O)CN1C(=O)C(=Cc2ccc(-c3ccc(C4CCCC4)cc3)o2)SC1=S [Compound B81],< 10 µM
14,C=C(c1ccccc1)c1ccc(-c2ccc(C=C3SC(=S)N(CC(=O)O)C3=O)o2)cc1 [Compound B82],< 10 µM
15,CN(C)c1ccc(-c2ccc(C=C3SC(=S)N(CC(=O)O)C3=O)o2)cc1 [Compound B84],11 to 40 µM
16,O=C(O)CN1C(=O)C(=Cc2ccc(-c3cccc(Cl)c3Cl)o2)SC1=S [Compound B85],< 10 µM
17,CN(C)c1ccc(-c2ccc(C=C3SC(=S)N(CC(=O)O)C3=O)o2)cc1 [Compound B86],41 to 80 µM
18,Cc1ccccc1-c1ccc(C=C2SC(=S)N(CC(=O)O)C2=O)o1 [Compound B87],41 to 80 µM
19,COc1ccccc1-c1ccc(C=C2SC(=S)N(CC(=O)O)C2=O)o1 [Compound B88],11 to 40 µM
20,N#Cc1c(F)cccc1-c1ccc(C=C2SC(=S)N(C(C(=O)O)c3ccccc3)C2=O)o1 (stereo not shown) [Compound B89],11 to 40 µM
21,O=C(O)CCCN1C(=O)C(=Cc2ccc(-c3ccccc3Cl)o2)SC1=S [Compound B90],< 10 µM
22,O=C(O)CCCN1C(=O)C(=Cc2ccc(-c3cccc(C(F)(F)F)c3)o2)SC1=S [Compound B91],< 10 µM
23,Cc1cc(N(C)C)ccc1-c1ccc(C=C2SC(=S)N(CCCC(=O)O)C2=O)o1 [Compound B92],11 to 40 µM
24,CS(=O)(=O)c1ccc(-c2ccc(C=C3SC(=S)N(CCCC(=O)O)C3=O)o2)cc1 [Compound B93],11 to 40 µM

row,SMILES,IC50
1,CC(C(=O)O)N1C(=O)C(=Cc2ccc(-c3ccccc3Cl)o2)SC1=S (stereo not shown) [Compound B94],11 to 40 µM
2,CC(C(=O)O)N1C(=O)C(=Cc2ccc(-c3cccc(Cl)c3)o2)SC1=S (stereo not shown) [Compound B95],11 to 40 µM
3,CC(C(=O)O)N1C(=O)C(=Cc2ccc(-c3ccc(Cl)cc3)o2)SC1=S (stereo not shown) [Compound B96],< 10 µM
4,Cc1ccccc1-c1ccc(C=C2SC(=S)N(C(C)C(=O)O)C2=O)o1 (stereo not shown) [Compound B97],11 to 40 µM
5,CC(C(=O)O)N1C(=O)C(=Cc2ccc(-c3ccc(F)cc3)o2)SC1=S (stereo not shown) [Compound B98],41 to 80 µM
6,CC(C(=O)O)N1C(=O)C(=Cc2ccc(-c3ccccc3C(F)(F)F)o2)SC1=S (stereo not shown) [Compound B99],11 to 40 µM
7,CC(C(=O)O)N1C(=O)C(=Cc2ccc(-c3cccc(C(F)(F)F)c3)o2)SC1=S (stereo not shown) [Compound B100],< 10 µM
8,CC(C)C(C(=O)O)N1C(=O)C(=Cc2ccc(-c3ccccc3Cl)o2)SC1=S (stereo not shown) [Compound B101],< 10 µM
9,CC(C)C(C(=O)O)N1C(=O)C(=Cc2ccc(-c3cccc(Cl)c3)o2)SC1=S (stereo not shown) [Compound B102],11 to 40 µM
10,CC(C)C(C(=O)O)N1C(=O)C(=Cc2ccc(-c3ccc(Cl)cc3)o2)SC1=S (stereo not shown) [Compound B103],< 10 µM
11,CC(C)C(C(=O)O)N1C(=O)C(=Cc2ccc(-c3ccccc3C(F)(F)F)o2)SC1=S (stereo not shown) [Compound B104],< 10 µM
12,CC(C)C(C(=O)O)N1C(=O)C(=Cc2ccc(-c3cccc(C(F)(F)F)c3)o2)SC1=S (stereo not shown) [Compound B105],11 to 40 µM
13,Cc1ccccc1-c1ccc(C=C2SC(=S)N(C(C(=O)O)C(C)C)C2=O)o1 (stereo not shown) [Compound B106],11 to 40 µM
14,CC(C)C(C(=O)O)N1C(=O)C(=Cc2ccc(-c3ccc(F)cc3)o2)SC1=S (stereo not shown) [Compound B107],11 to 40 µM
15,CC(C)C(C(=O)O)N1C(=O)C(=Cc2ccc(-c3ccc(Cl)cc3Cl)o2)SC1=S (stereo not shown) [Compound B108],< 10 µM
16,COc1ccc(-c2ccc(C=C3SC(=S)N(C(C(=O)O)C(C)C)C3=O)o2)cc1Cl (stereo not shown) [Compound B109],< 10 µM
17,CC(C)C(C(=O)O)N1C(=O)C(=Cc2ccc(-c3ccc(Cl)cc3[N+](=O)[O-])o2)SC1=S (stereo not shown) [Compound B110],11 to 40 µM
18,CC(C)C(C(=O)O)N1C(=O)C(=Cc2ccc(-c3ccc(Cl)c(Cl)c3)o2)SC1=S (stereo not shown) [Compound B111],< 10 µM
19,COc1ccc(-c2ccc(C=C3SC(=S)N(C(C)C(=O)O)C3=O)o2)cc1Cl (stereo not shown) [Compound B113],< 10 µM
20,CC(C(=O)O)N1C(=O)C(=Cc2ccc(-c3ccc(Cl)cc3[N+](=O)[O-])o2)SC1=S (stereo not shown) [Compound B114],11 to 40 µM
21,CNS(=O)(=O)c1ccc(-c2ccc(C=C3SC(=S)N(CCCC(=O)O)C3=O)o2)cc1 [Compound B115],41 to 80 µM
22,"O=C(O)C1CCCC(N2C(=O)C(=Cc3ccc(-c4ccccc4Cl)o3)SC2=S)C1 (stereo not shown) [Compound C1, 3-{5-[1-[5-(2-chloro-phenyl)-furan-2-yl]-methylidene]-4-oxo-2-thioxo-thiazolidin-3-yl}-cyclohexanecarboxylic acid]",11 to 40 µM
